Source: patent US20250134853A1, “COMPOUNDS AND METHODS FOR USING GALLOYLATED POLYPHENOLS TO TREAT DISEASES MEDIATED BY THIOL ISOMERASES” (Beth Israel Deaconess Medical Center, Inc., priority 2023, published 2025)
Entries after “also recorded” stand apart in the source; their conditions may differ.

What was measured:
[1] = target: T1, PDI (Homo sapiens, UniProt P07237); test: SDS-PAGE molecular weight shift (alkylation of PDI free thiols); format: biochemical
T1 construct: FLAG; made in house; host or cells: Escherichia coli Origami B (DE3)
T1 sequence (P07237 18-508): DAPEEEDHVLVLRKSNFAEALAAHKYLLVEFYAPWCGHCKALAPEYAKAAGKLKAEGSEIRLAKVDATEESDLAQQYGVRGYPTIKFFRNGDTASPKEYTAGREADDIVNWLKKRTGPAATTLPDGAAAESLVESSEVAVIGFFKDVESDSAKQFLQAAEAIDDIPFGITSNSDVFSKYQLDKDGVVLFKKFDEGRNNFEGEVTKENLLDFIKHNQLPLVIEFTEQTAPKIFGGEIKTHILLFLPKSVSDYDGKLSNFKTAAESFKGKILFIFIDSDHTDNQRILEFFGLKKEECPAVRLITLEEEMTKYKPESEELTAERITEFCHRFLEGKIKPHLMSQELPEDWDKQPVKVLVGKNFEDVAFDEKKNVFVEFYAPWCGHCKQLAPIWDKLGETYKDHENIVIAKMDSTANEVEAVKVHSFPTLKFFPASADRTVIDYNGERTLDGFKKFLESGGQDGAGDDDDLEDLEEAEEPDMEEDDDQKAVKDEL
Excerpt: FIG. 5 is an image of gel showing detection of PDI free thiol by the labeling of acetamido maleimidylstilbene disulfonic acid (AMS), which shifts the protein to a higher apparent molecular weight.
4-acetomido-4′-maleimidylstilbene-2,2′ disulfonic acid (AMS), which shifts the mass of the protein by 500 Da for every cysteine alkylated, was used as a positive control. […] N-ethylmaleimide (NEM) was used for a control experiment because covalent alkylation of the free thiols will expectedly prevent PDI activity (FIG. 6A).

[2] = test system: SARS-CoV-2; details: cited from earlier work
[3] = test system: bleeding following tail clip; test: Tail clip assay of hemostasis; details: 25 μg/g PGHG, intraperitoneal injection
[4] = test system: PDI mutants in which His55 and His399 were replaced; details: 10 μM PGHG, 15 min
Description: Data represented as mean±SEM.
Di-eosin-GSSG disulfide reductase assay. […] Di-eosin-GSSG cleavage of purified thiol isomerases and PDI domains was monitored in a 96-well fluorescence plate format. PDI, CGXC-PDI variants, ERp5, ERp57, ERp46 and PDI domains were assayed at 50 nM in the presence or absence of the indicated small molecules. The assay included a thiol isomerase assay buffer (39 mM KH2PO4, 61 mM K2HPO4, 2 mM EDTA, 5 M DTT, pH 7.4) and 150 nM of the di-eosin-GSSG probe. The increase in fluorescence was determined for 60 min by excitation at 520 nm and emission at 550 nm in a Synergy Biotek 4. The reduction of 150 nM di-eosin-GSSG by 5 μM DTT in the presence or absence of mentioned small molecule or proteins served as a negative control.

[5] = target: T1, PDI; test: Maleimide-pegylated biotin (MPB) binding to PDI; details: preincubation with compound
Description: PDI was then exposed to MPB in Laemmli Sample buffer for 10 minutes. Samples were subsequently analyzed for MPB labeling with […] after SDS-PAGE and immunoblotting.
Maleimide-pegylated Biotin (MPB) binding. MPB-binding experiments were performed in a reaction volume of 37.5 μL of polyphenols with 5 μM of thiol isomerase in phosphate buffered saline (PBS). The reaction mixture was incubated at 37° C. for 1 h. Subsequently, the reaction mixtures were incubated with 25 μM of MPB. The labelling was performed for 20 min at 25° C. A total of 12.5 μL of 4× Laemmli Sample Buffer with 10% v/v β-mercaptoethanol was added to each of the samples, followed by heating at 95° C. for 10 min. From each sample, 10 μL was loaded on a 4-15% SDS-PAGE TGX gel, followed by transfer on a nitrocellulose membrane. After blocking the membrane with tris-buffered saline containing 0.1% v/v Tween-20 (TBS-T) containing 5% BSA for 1 h, the membrane was incubated with a 1:2,000 dilution of streptavidin-HRP in TBS-T for an hour in the dark. Detection of the immunoblots was performed using a BioRad ChemiDoc MP imager.

[6] = test system: PDI domain fragments (a, a′, ab, abb′, b′xa′); test: Di-eosin-GSSG assay on isolated PDI domain fragments; format: biochemical; details: a, ab, b′xa′, abb′ fragments; PGHG at 10 μM
Description: Di-eosin-GSSG disulfide reductase assay. The probe di-eosin glutathione disulfide, di-eosin-GSSG, was prepared by incubating 100 μM of GSSG with 1 mM of eosin isothiocyanate in 100 mM potassium phosphate containing 2 mM EDTA (pH 7.4), at 25° C. overnight in the dark. The mixture was passed down a PD-10 column and different fractions were collected. A fold change of fluorescence (Ex: 520 nm, Em: 550 nm) was calculated using samples subjected to either vehicle or 20 mM of DTT. Any fraction with a fold change >5 was kept. Using a stock of 10 mM eosin isothiocyanate, a standard curve was generated and concentration of samples were determined accordingly. Di-eosin-GSSG cleavage of purified thiol isomerases and PDI domains was monitored in a 96-well fluorescence plate format. PDI, CGXC-PDI variants, ERp5, ERp57, ERp46 and PDI domains were assayed at 50 nM in the presence or absence of the indicated small molecules. The assay included a thiol isomerase assay buffer (39 mM KH2PO4, 61 mM K2HPO4, 2 mM EDTA, 5 M DTT, pH 7.4) and 150 nM of the di-eosin-GSSG probe. The increase in fluorescence was determined for 60 min by excitation at 520 nm and emission at 550 nm in a Synergy Biotek 4. The reduction of 150 nM di-eosin-GSSG by 5 μM DTT in the presence or absence of mentioned small molecule or proteins served as a negative control.

[7] = target: T1, PDI; test: Jump dilution reversibility, di-eosin-GSSG assay; format: biochemical; details: 50 μM, 30 min, then 100-fold dilution
Description: FIGS. 6A and 6B are plots showing % PDI activity. […] To test reversibility, the samples containing 50 μM compounds were then diluted 1:100. PDI activity was evaluated using a di-eosin-GSSG reductase assay. Data represented as mean SEM.
After 30 minutes of equilibration, the PDI-inhibitor mixture was diluted 100-fold with thiol isomerase assay buffer where the final concentration of enzyme is 0.2 μM and compounds at 500 nM or 50 μM. Di-eosin-GSSG was added to a final concentration of 300 nM and the assay was immediately recorded for 1 h.

In the case of `O=C(O[C@@H]1[C@@H](O)[C@H](Oc2cc(O)c3c(c2)O[C@H](c2ccccc2)CC3=O)O[C@@H]2COC(=O)c3cc(O)c(O)c(O)c3-c3c(cc(O)c(O)c3O)C(=O)O[C@@H]12)c1cc(O)c(O)c(O)c1` [PGHG, pinocembrin 7-O-(3″-galloyl-4″,6″-(S)-hexahydroxydiphenoyl)-beta-D-glucose], the “shift in molecular weight of PDI in SDS polyacrylamide gel” value [1] is listed as “did not induce a shift in molecular weight”, the IC50 ([2]; Vero Cells, read-out: Inhibition of viral replication IC50) is listed as 5 µM and the “inhibition of SARS-CoV-2 / infection (in words)” value [2] is listed as “inhibitors of SARS-CoV-2”. The “time to cessation of bleeding” value [3] was “did not prolong the time to cessation of bleeding; also recorded: did not prolong the time required for bleeding to subside”, the total blood loss [3] was “nor the total amount of blood loss; also recorded: nor did it significantly affect total blood loss” and the “susceptibility of His55/His399 PDI mutants (Ala, Asp, Arg)” value [4] was “mutants were resistance to PGHG”. The “effect on MPB binding to PDI” value [5] was “no significant effect on MPB binding”, the “inhibition of isolated PDI fragments” value [6] was “inhibited a and a′ fragments as well as ab, b′xa′ and abb′x fragments; also recorded: inhibited activity of all fragments including the isolated the a and a′ domains” and the “reversibility of PDI inhibition” value [7] was “inhibitory activity was lost following a 100-fold dilution”.
